Experimental data as given in patent US12616203B2, “Use of 3-isoxazolidinones compounds as selective herbicides” (FMC Corporation, priority 2014, dated 2026).
Where two headings read alike, the source gives them in different places.

How the values were obtained:
weeds; Wheat and canola = test: Ex44 PRE greenhouse; format: in vivo; conditions: weed and rate in the words
Source text: Redroot pigweed (Amaranth retroflexus, AMARE), Italian ryegrass (Lolium perenne. multiflorum, LOLMU), wild mustard (Sinapis arvensis, SINAR), annual bluegrass (Poa annua POAAN), wild oat (Avena fatua, AVEFA), blackgrass (Alopecurus myosuroides, ALOMY), common lambsquarters (Chenopodium album, […] (Phalaris minor, PHAMI), common chickweed (Stellaria media, STEME), corn poppy (Papaver rhoeas, PAPRH) and silky […]). Crops tested included wheat and canola. […] Treatments were applied before the emergence of redroot pigweed, Italian ryegrass, wild oat, blackgrass, littleseed canarygrass, common chickweed, common lambsquarters, corn poppy, wild mustard, annual bluegrass, silky […], canola, and wheat. […] Flats were watered and fertilized routinely after treatment application.

Wild oat = test: Ex32 PRE 2,4-DC + pyroxasulfone + sulfentrazone, % control 28 DAT, Colby; format: in vivo, Avena fatua
Source text: Treatments were applied at the time of planting to Italian ryegrass, green foxtail, littleseed canarygrass, wild oat, quackgrass, dandelion, common chickweed, white clover, yellow nutsedge, redroot pigweed, field bindweed, canola, and wheat. […] Flats were watered and fertilized routinely after treatment application.

weeds; wheat, and corn = test: Ex38 PRE greenhouse; format: in vivo; conditions: rate in the words
Source text: Pyroxasulfone plus fluthiacet-methyl (ANTHEM™, 23.3%) applied at 165 g ai/ha was included as a standard for comparison. […] Thereafter flats were watered and fertilized routinely.

[1] = system: weeds; sweet corn, yellow corn, and sorghum; test: Ex31 PRE greenhouse; format: in vivo; conditions: weed and rate in the words
Source text: Flats were watered and fertilized routinely after treatment application.

Blackgrass = test: Ex13 PRE 2,4-DC + diflufenican, % control 28 DAT, Colby; format: in vivo, Alopecurus myosuroides
Source text: Pyroxasulfone (KIH-485, 85%) at 74.3 g ai/ha, pendimethalin (Prowl 3.3EC, 37.4%) at 1200 g ai/ha, or a premix of chlorsulfuron plus metsulfuron-methyl (Report Extra, 75%) at 15.8 g ai/ha were applied as commercial standards. […] Treatments were replicated 3 times and flats were watered after planting before the treatment and lightly watered after treatment application. Thereafter flats were watered and fertilized routinely.

Annual bluegrass = test: Ex34 PRE 2,4-DC + napropamide, % control, Colby; format: in vivo, Poa annua; conditions: 28 DAT
Source text: Thereafter flats were watered and fertilized routinely.

weeds; Corn = test: Ex25 PRE greenhouse; format: in vivo; conditions: rate in the words
Source text: The crop tested in this study was Corn.
2,4 DC-21 (36.7% CS) was applied PRE at 0, 125, 170, 210, or 250 g ai/ha alone or as a tank-mix with pyroxasulfone (KIH-485, 85% WP) at 0, 50, 65, 80, or 95 g ai/ha. Pyroxasulfone plus fluthiacet-methyl (Anthem™, 23.3%) applied at 169.9 g ai/ha, s-metolachlor (Dual II Magnum®, 82.4%) applied at 1389 g, and the tank-mix of mesotrione (Callisto®, 40%) at 123 g plus s-metolachlor (Dual II Magnum®, 82.4%) at 1252 g were included as a standards for comparison. […] Thereafter flats were watered and fertilized routinely.

canola and wheat = test: Ex43 PRE crop safety; format: in vivo; conditions: crop and rate in the words
common chickweed = test: Ex14 POST 2,4-DC + bromoxynil, % control 28 DAT, Colby; format: in vivo, Stellaria media
Source text: The study further assessed post crop safety on Wheat and Barley.
Nonionic surfactant at 0.5% (v/v) was included with commercial standards application. No adjuvant was applied with any other treatments. All plant species were direct seeded into 3″ plastic pots using metro-mix as growth media. At treatment application common lambsquarters was 1.75″, common chickweed was 2″, wild mustard was 2.25″, wild oat was 5.5″, wild buckwheat was 2-5″, Italian ryegrass was 2-3″, wheat was 5.5″, and barley was 4.5″ in height. Plants were watered well before application and not watered 24 h after application. Plants were watered and fertilized routinely after treatment application. Each treatment was replicated four times.

wheat = format: in vivo; conditions: 14 DAT, POST, 2,4-DC 210 g ai/ha
Description: (§1) Treatments were applied to wheat and barley crops.
(§2) Nonionic surfactant was added at 0.5% v/v in all treatments. Treatments were applied to wheat (5.5″), barley (5″), wild oat (5.5″), common chickweed (2″), wild buckwheat (3″), and common lambsquarters (2″). All plant species were direct seeded into 3″ plastic pots using metro-mix as growth media and pots were watered well before application and watered 24 h after application. Plants were watered and fertilized routinely after treatment application. Each treatment was replicated four times.

Barley = format: in vivo; conditions: 14 DAT
Description: as §1, §2

[2] = system: weeds; Sugarcane (var. CTC 20); test: Ex17 PRE greenhouse; format: in vivo; conditions: weed and rate in the words
Description: In this example a study was conducted to determine weed efficacy and sugarcane injury when 2,4 DC or isoxaflutole are applied either alone or tank-mix as preemergence against the weeds: Ivyleaf morningglory (Ipomoea hederacea, IPOHE), hairy beggartickss (Bidens pilosa, BIDPI), yellow nutsedge (Cyperus esculentus, CYPES), large crabgrass (Digitaria sanguinalis, DIGSA), and redroot pigweed (Amaranthus retroflexus, AMARE). The crop tested in this study was Sugarcane (var. CTC 20).
To determine weed efficacy and sugarcane selectivity, 2,4 DC (SC 36%) and isoxaflutole (Balance Flexx®, 20%) were applied PRE either alone or as tank-mix partners at rates mentioned below. 2,4 DC was applied at 500, 750, and 1000 g ai/ha while isoxaflutole was applied at 80, 100, and 120 g ai/ha. […] Treatments were applied PRE to sugarcane (var. CTC 20), ivyleaf morningglory, hairy beggarticks, yellow nutsedge, large crabgrass, and redroot pigweed. Weed species were planted in fiber flats (6″×10″) containing Pennington soil. Soil was watered before application and watered lightly after application. Flats were watered and fertilized routinely after treatment application.

CC1(C)CON(Cc2ccc(Cl)cc2Cl)C1=O [2,4-DC, 2-(2,4-dichlorophenyl)methyl-4,4-dimethyl-3-isoxazolidinone]
weed control in words (weeds; Wheat and canola): alone provided control of corn poppy at ≥100 g, Italian ryegrass at ≥200 g, lambsquarters, 400 g, blackgrass at ≥200 g, silky windgrass at ≥100 g and chickweed at all rates
X (Wild oat; 2,4-DC alone 50 g ai/ha): 28%
X (Wild oat; 2,4-DC alone 100 g ai/ha): 28%
X (Wild oat; 2,4-DC alone 200 g ai/ha): 67%
weed control / crop safety in words (weeds; wheat, and corn): applied alone at ≥50 g ai/ha controlled (≥85%) kochia, at ≥200 g controlled Italian ryegrass or redroot pigweed, and controlled velvetleaf at 400 g
weed control in words [1]: alone did not control any weeds except barnyardgrass
X (Blackgrass; 2,4-DC alone 125 g ai/ha): 23%
X (Blackgrass; 2,4-DC alone 170 g ai/ha): 53%
X (Blackgrass; 2,4-DC alone 210 g ai/ha): 66%
X (Blackgrass; 2,4-DC alone 250 g ai/ha): 68%
X (Annual bluegrass; 2,4-DC alone 31 g ai/ha): 0%
X (Annual bluegrass; 2,4-DC alone 63 g ai/ha): 2%
X (Annual bluegrass; 2,4-DC alone 125 g ai/ha): 12%
X (Annual bluegrass; 2,4-DC alone 250 g ai/ha): 40%
X (Annual bluegrass; 2,4-DC alone 375 g ai/ha): 63%
weed control / crop safety in words (weeds; Corn): applied alone controlled (≥85% injury) black nightshade at 170 g ai/ha, did not provide control of other weeds tested when applied alone at any rate, and was safe on corn at all rates
crop safety in words (canola and wheat): alone was safe (≤10% injury) on canola at ≤200 g ai/ha and safe on wheat at ≤100 g
X (common chickweed; 2,4-DC alone 125 g ai/ha): 9%
X (common chickweed; 2,4-DC alone 170 g ai/ha): 7%
X (common chickweed; 2,4-DC alone 210 g ai/ha): 14%
X (common chickweed; 2,4-DC alone 250 g ai/ha): 28%
% crop injury for 2,4-DC alone (wheat): 31%
% crop injury for 2,4-DC alone (Barley; POST, 2,4-DC 125 g ai/ha): 17%
% crop injury for 2,4-DC alone (Barley; POST, 2,4-DC 170 g ai/ha): 17%
% crop injury for 2,4-DC alone (Barley; POST, 2,4-DC 210 g ai/ha): 18%
% crop injury for 2,4-DC alone (Barley; POST, 2,4-DC 250 g ai/ha): 23%
weed control in words [2]: Large crabgrass and redroot pigweed were controlled with 2,4 DC alone at 500 g or higher rates
